Experimental findings from patent US20250263667A1, “HUMAN FATTY-LIVER MODEL CELLS FOR USE IN SCREENING METHOD” (PhoenixBio Co., Ltd., priority 2021, published 2025) are described below.

Holding throughout (assay type): cell-based, human
Assay [1] has as its system PXB-cells. Kind of assay: Analysis of lipoprotein in culture supernatant (LipoSEARCH gel filtration HPLC) of PXB-cells. The conditions noted are these: for content of Large-VLDL among the VLDL in the culture supernatant (neutral fat (triglyceride)): Large-VLDL alone changed. The method, then: The following day of seeding, medium A was removed. Instead, 500 μL of medium B (DMSO (+)) or medium C (DMSO (−)) was added. The plate was gently placed in an incubator (37° C., 5% CO2) and the cells were cultured for 5 days. After completion of culture, an image of the cells was taken by a photomicrographic camera. Then, the culture supernatant was recovered and subjected to analysis for lipoprotein in the culture supernatant described below. Lipoproteins contained in the culture supernatants of PXB-cells, HepG2 cells and HuH7 cells were analyzed by using LipoSEARCH (registered trademark) method (Skylight Biotech, Inc.). After completion of the culture mentioned above, the medium used in the culture was removed and 500 μL of medium D for analysis was added. The culture plate was gently placed in an incubator (37° C., 5% CO2) and the cells were cultured for 2 days. Thereafter, the culture supernatant was recovered, lipoproteins contained in the culture supernatant (80 μL) were fractionated into 4 types of subgroups, CM, VLDL, LDL and HDL fractions, by gel filtration HPLC. Cholesterol and neutral fat (triglyceride) contained in individual fractions were quantified by online enzyme reactions. Concentration analysis was carried out in accordance with the computer program specifically developed by Skylight Biotech, Inc. Note that, in the enzymatic reaction, Diacolor Liquid TG-S (manufactured by Toyobo Co., Ltd.) was used. As standard sera for cholesterol and neutral fat (triglyceride) concentration in CM, VLDL, LDL and HDL, the sera manufactured by Kyowa Hakko Kirin Co., Ltd. were used. PXB-cells were diluted with medium A. The diluted cell suspension (500 μL) was gently poured to individual wells of a culture plate. The plate was allowed to stand still for about 20 minutes until the cells were slightly in contact with the bottom surface of the wells and gently placed to an incubator (37° C., 5% CO2) to culture the cells. The following day of seeding, medium A was removed and 500 μL of medium B (DMSO (+)) was added. The plate was gently placed in an incubator (37° C., 5% CO2) and the cells were cultured for 13 days. After completion of culture, the cells were used in the following test. A medium of PXB-cells prepared above was exchanged with medium D containing 0.75 mM oleic acid, and gently placed in an incubator (37° C., 5% CO2). PXB-cells were cultured for two days. PXB-cells were prepared in the same manner as in the method set forth in “Preparation of cells” in the above step (1-1) except that the period of culture in medium B (DMSO (+)) was set at 6 days and subjected to the following test. The mediums for the PXB-cells prepared above were exchanged with mediums D containing 1 nM or 5 nM lomitapide respectively and gently placed in an incubator (37° C., 5% CO2). PXB-cells were cultured for two days. PXB-cells were prepared in the same manner as in the method set forth in “Preparation of cells” in the above step (1-1) and subjected to the following test. The mediums of the PXB-cells prepared above were exchanged with mediums D containing 10 μM, 50 μM or 100 μM fenofibrate and gently placed in an incubator (37° C., 5% CO2). The PXB-cells were cultured for 2 days. After completion of the culture, cholesterol and neutral fat (triglyceride) in the culture supernatant and cells were measured in accordance with the method described in the above section “Analysis of lipoprotein in culture supernatant” and “Analysis of lipoprotein in cells”, respectively.
A general note: Size exclusion chromatography separates by hydrodynamic size, large species first.

The subject of assay [2] is PXB-cells. Kind of assay: Observation of fat droplets in PXB-cells by photomicrograph. The settings on record: 2% DMSO in medium, 5 days culture. Here is the method: The following day of seeding, medium A was removed. Instead, 500 μL of medium B (DMSO (+)) or medium C (DMSO (−)) was added. The plate was gently placed in an incubator (37° C., 5% CO2) and the cells were cultured for 5 days. After completion of culture, an image of the cells was taken by a photomicrographic camera. Then, the culture supernatant was recovered and subjected to analysis for lipoprotein in the culture supernatant described below.

For assay [3], the system named is PXB-cells. Kind of assay: Analysis of lipoprotein in cells (intracellular triglyceride and cholesterol, Cholestest) of PXB-cells. The settings on record: 2 days, data not shown. The method, then: Triglyceride in cells was measured by use of Cholestest (registered trademark) TG (Sekisui Medical Co., Ltd.) in accordance with the instruction by the manufacturer. More specifically, the cells were washed with PBS, and then, completely dewatered (stored at -80° C. until measurement). To each well containing the cells, 200 μL of TG enzyme solution (1) was added. A reaction was allowed to proceed while keeping the cells warm at 37° C. for 10 minutes (free glycerol was removed) Then, the cells were torn away by pipetting, transferred to a centrifuge tube and centrifuged at 10,000 rpm×10 minutes. Then, the supernatant (7.5 μL) was transferred to a 96-well microplate. To this, 68 μL of TG enzyme solution (1) was added and the microplate was kept warm at 37° C. for 10 minutes to remove completely free glycerol. Then, 25 μL of TG enzyme solution (2) was added and kept the plate warm at 37° C. for 10 minutes. The resultant reaction product was subjected to measurement of absorbance at 550 nm. The content of triglyceride was calculated based on HDL-[…] as the reference (triglyceride concentration of HDL-[…] was 52.26 mg/dL). Intracellular cholesterol was measured by use of Cholestest (registered trademark) CHO (Sekisui Medical Co., Ltd.) in accordance with the instruction by the manufacturer. […] The resultant reaction product was subjected to measurement of absorbance at 550 nm. The content of cholesterol was calculated based on HDL-[…] as the standard ([…] of HDL-[…] was 152.67 mg/dL). […] After completion of culture, the total cholesterol and total neutral fat (triglyceride) in culture supernatant and in cells were measured in accordance with the methods described in the sections “Analysis of lipoprotein in culture supernatant” and “Analysis of lipoprotein in cells”. […] After completion of the culture, cholesterol and neutral fat (triglyceride) in the culture supernatant and cells were measured in accordance with the method described in the above sections “analysis of lipoprotein in culture supernatant” and “analysis of lipoprotein in cells”, respectively. […]

Molecules are shown by their SMILES.

With `C[S+](C)[O-]` [DMSO, dimethyl sulfoxide], the “secretion of total neutral fat (triglyceride) in lipoproteins, medium B (DMSO (+)) relative to medium C (DMSO (−))” value with PXB-cells [1] (2% DMSO in medium, 5 days culture, culture supernatant) is recorded as “about 9 times”. The “number of fat droplets in PXB-cells, medium B (DMSO (+)) compared to medium C (DMSO (−))” value in the assay with PXB-cells [2] was “about double”.
Turning to `O=C(NC1CCN(CCCCC2(C(=O)NCC(F)(F)F)c3ccccc3-c3ccccc32)CC1)c1ccccc1-c1ccc(C(F)(F)F)cc1` [lomitapide], the “content of neutral fat (triglyceride) in the cells” value with PXB-cells [3] (lomitapide (1 nM or 5 nM)) is reported as “no change”. Also, the “VLDL content of the culture supernatant (neutral fat (triglyceride))” value in the assay on PXB-cells [1] (5 nM lomitapide in medium D, 2 days, PXB-cells pre-cultured 6 days in medium B (DMSO (+)), vs ethanol control) was “significantly decreases”. The “content of Large-VLDL among the VLDL in the culture supernatant (neutral fat (triglyceride))” value in the assay with PXB-cells [1] (lomitapide in medium D, 2 days) is listed as “significantly decreased”.
As to `CCCCCCCC/C=C\CCCCCCCC(=O)O` [oleic acid], in the assay with PXB-cells [3] (0.75 mM oleic acid), the “content of cholesterol in the cells” value was “change similarly to the content of neutral fat (triglyceride)” and the “content of neutral fat (triglyceride) in the cells” value is reported as “significantly increased”. Further, in the assay with PXB-cells [1] (0.75 mM oleic acid in medium D, 2 days), the “content of Large-VLDL among the VLDL in the culture supernatant (neutral fat (triglyceride))” value is on record as “significantly increased”. The “VLDL content in the culture supernatant (neutral fat (triglyceride))” value in the assay with PXB-cells [1] (0.75 mM oleic acid in medium D, 2 days, PXB-cells pre-cultured 13 days in medium B (DMSO (+)), vs medium D control) is “significantly increased”. Moreover, the “content of cholesterol in the culture supernatant” value with PXB-cells [1] (0.75 mM oleic acid, 2 days, data not shown) was “change similarly to the content of neutral fat (triglyceride)”.
